Measurements: ChEMBL document CHEMBL5625256, “Rapid access to icetexane diterpenes: Their protective effects against lipopolysaccharides-induced acute lung injury via PI3K/AKT/NF-κB axis in macrophages” (Eur J Med Chem, 2023)
The source made the active and inactive calls. The calls are words filed in the database; no cut-off is given here.

How the values were obtained:
RAW264.7 [1] = experiment: Antiinflammatory activity against LPS-induced mouse RAW264.7 cells assessed as decrease in TNF-alpha mRNA expression at 10 uM incubated for 8 hrs by RT-PCR analysis; assay type: functional, cell-based
RAW264.7 [2] = experiment: Antiinflammatory activity against LPS-induced mouse RAW264.7 cells assessed as decrease in IL-1beta mRNA expression at 10 uM incubated for 8 hrs by RT-PCR analysis; assay type: functional, cell-based
RAW264.7 [3] = experiment: Antiinflammatory activity against LPS-induced mouse RAW264.7 cells assessed as decrease in IL-6 mRNA expression at 10 uM incubated for 8 hrs by RT-PCR analysis; assay type: functional, cell-based
RAW264.7 [4] = experiment: Cytotoxicity against mouse RAW264.7 cells assessed as reduction in cell viability at 60 uM measured after 24 hrs by MTT assay; assay type: toxicity, cell-based; conditions: raw264.7, 24 h
Mus musculus [5] = experiment: In vivo inhibition of PI3K-AKT phosphorylation in LPS-induced […] C57BL/6 mouse model at 5 to 25 mg/kg, ip measured for 24 hrs by Western blot analysis; assay type: functional, organism-based; conditions: dose 5-25 mg/kg
RAW264.7 [6] = experiment: Antiinflammatory activity against LPS-induced mouse RAW264.7 cells assessed as downregulation of PI3K level incubated for 8 hrs by Western blot analysis; assay type: functional, cell-based; conditions: dose <= 20.0 µM
RAW264.7 [7] = experiment: Antiinflammatory activity against LPS-induced mouse RAW264.7 cells assessed as decrease in nuclear translocation incubated for 8 hrs by Western blot analysis; assay type: functional, cell-based; conditions: dose <= 20.0 µM
Mus musculus [8] = experiment: Antiinflammatory activity against LPS-induced […] C57BL/6 mouse model assessed as reduction in IL-1beta mRNA expression in lung at 5 to 25 mg/kg, ip incubated for 24 hrs by RT-PCR analysis; assay type: functional, organism-based; conditions: dose 5-25 mg/kg
RAW264.7 [9] = experiment: Antiinflammatory activity against LPS-induced mouse RAW264.7 cells assessed as inhibition of NO release incubated for 8 hrs […]; assay type: functional, cell-based; conditions: dose <= 20.0 µM
RAW264.7 [10] = experiment: Antiinflammatory activity against LPS-induced mouse RAW264.7 cells assessed as decrease in TNF-alpha mRNA expression incubated for 8 hrs by RT-PCR analysis; assay type: functional, cell-based; conditions: dose <= 20.0 µM
Mus musculus [11] = experiment: Antiinflammatory activity against LPS-induced […] C57BL/6 mouse model assessed as reduction in TNF-alpha mRNA expression in lung at 5 to 25 mg/kg, ip incubated for 24 hrs by RT-PCR analysis; assay type: functional, organism-based; conditions: dose 5-25 mg/kg
RAW264.7 [12] = experiment: Antiinflammatory activity against LPS-induced mouse RAW264.7 cells assessed as decrease in IkappaBalpha level incubated for 8 hrs by Western blot analysis; assay type: functional, cell-based; conditions: dose <= 20.0 µM
RAW264.7 [13] = experiment: Antiinflammatory activity against mouse RAW264.7 cells assessed as reduction in LPS-induced ROS production incubated for 8 hrs by DCFH-DA staining based flow cytometry analysis; assay type: functional, cell-based; conditions: dose <= 20.0 µM
RAW264.7 [14] = experiment: Antiinflammatory activity against LPS-induced mouse RAW264.7 cells assessed as decrease in IkappaBalpha level incubated for 8 hrs by DAPI staining based immunofluorescence analysis; assay type: functional, cell-based; conditions: dose <= 20.0 µM
RAW264.7 [15] = experiment: Antiinflammatory activity against LPS-induced mouse RAW264.7 cells assessed as downregulation of total PI3K level incubated for 8 hrs by Western blot analysis; assay type: functional, cell-based; conditions: dose <= 20.0 µM
Mus musculus [16] = experiment: Antiinflammatory activity against LPS-induced […] C57BL/6 mouse model assessed as reduction IkappaBalpha level in lung at 5 to 25 mg/kg, ip incubated for 24 hrs by Western blot analysis; assay type: functional, organism-based; conditions: dose 5-25 mg/kg
Mus musculus [17] = experiment: Antiinflammatory activity against LPS-induced […] C57BL/6 mouse model assessed as reduction in lung injury score at 5 to 25 mg/kg, ip incubated for 24 hrs by H and E staining based analysis; assay type: functional, organism-based; conditions: dose 5-25 mg/kg
RAW264.7 [18] = experiment: Antiinflammatory activity against LPS-induced mouse RAW264.7 cells assessed as downregulation of AKT level incubated for 8 hrs by Western blot analysis; assay type: functional, cell-based; conditions: dose <= 20.0 µM
RAW264.7 [19] = experiment: Antiinflammatory activity against LPS-induced mouse RAW264.7 cells transfected with AKT shRNA assessed as decrease in IL-1beta expression incubated for 8 hrs by Western blot analysis; assay type: functional, cell-based; conditions: dose <= 20.0 µM
RAW264.7 [20] = experiment: Antiinflammatory activity against LPS-induced mouse RAW264.7 cells assessed as decrease in IL-6 mRNA expression incubated for 8 hrs by RT-PCR analysis; assay type: functional, cell-based; conditions: dose <= 20.0 µM
Mus musculus [21] = experiment: In vivo inhibition of PI3K-AKT phosphorylation in LPS-induced […] C57BL/6 mouse model at 5 to 25 mg/kg, ip measured for 24 hrs by Immunohistochemistry analysis; assay type: functional, organism-based; conditions: dose 5-25 mg/kg
Mus musculus [22] = experiment: Antiinflammatory activity against LPS-induced […] in ip dosed C57BL/6 mouse model assessed as reduction in MDA level in serum incubated for 24 hrs; assay type: functional, organism-based; conditions: dose 5-25 mg/kg
RAW264.7 [23] = experiment: Antiinflammatory activity against LPS-induced mouse RAW264.7 cells assessed as downregulation of total AKT level incubated for 8 hrs by Western blot analysis; assay type: functional, cell-based; conditions: dose <= 20.0 µM
RAW264.7 [24] = experiment: Antiinflammatory activity against LPS-induced mouse RAW264.7 cells transfected with AKT shRNA assessed as decrease in IL-6 expression incubated for 8 hrs by Western blot analysis; assay type: functional, cell-based; conditions: dose <= 20.0 µM
Mus musculus [25] = experiment: Antiinflammatory activity against LPS-induced […] C57BL/6 mouse model assessed as reduction in IL-6 mRNA expression in lung at 5 to 25 mg/kg, ip incubated for 24 hrs by RT-PCR analysis; assay type: functional, organism-based; conditions: dose 5-25 mg/kg
RAW264.7 [26] = experiment: Antiinflammatory activity against LPS-induced mouse RAW264.7 cells assessed as decrease in IL-1beta mRNA expression incubated for 8 hrs by RT-PCR analysis; assay type: functional, cell-based; conditions: dose <= 20.0 µM
RAW264.7 [27] = experiment: Antiinflammatory activity against LPS-induced mouse RAW264.7 cells transfected with AKT shRNA assessed as decrease in TNF-alpha expression incubated for 8 hrs by Western blot analysis; assay type: functional, cell-based; conditions: dose <= 20.0 µM
RAW264.7 [28] = experiment: Antiinflammatory activity against LPS-induced mouse RAW264.7 cells assessed as decrease in NF-kappaB level incubated for 8 hrs by DAPI staining based immunofluorescence analysis; assay type: functional, cell-based; conditions: dose <= 20.0 µM
RAW264.7 [29] = experiment: Antiinflammatory activity against LPS-induced mouse RAW264.7 cells assessed as suppression of iNOS mRNA expression incubated for 8 hrs by RT-PCR analysis; assay type: functional, cell-based; conditions: dose <= 20.0 µM
RAW264.7 [30] = experiment: Antiinflammatory activity against LPS-induced mouse RAW264.7 cells assessed as decrease in nuclear translocation incubated for 8 hrs by DAPI staining based immunofluorescence analysis; assay type: functional, cell-based; conditions: dose <= 20.0 µM
RAW264.7 [31] = experiment: Antiinflammatory activity against LPS-induced mouse RAW264.7 cells assessed as decrease in NF-kappaB level incubated for 8 hrs by Western blot analysis; assay type: functional, cell-based; conditions: dose <= 20.0 µM
Mus musculus [32] = experiment: Antiinflammatory activity against LPS-induced […] in ip dosed C57BL/6 mouse model assessed as increase in SOD level in serum incubated for 24 hrs; assay type: functional, organism-based; conditions: dose 5-25 mg/kg

SMILES: C[C@@H]1C[C@H]2[C@@H]3CCC4=CC(=O)C=C[C@]4(C)[C@@]3(F)[C@@H](O)C[C@]2(C)[C@@]1(O)C(=O)CO
- Activity (RAW264.7 [1]): Active
- Activity (RAW264.7 [2]): Active
- Activity (RAW264.7 [3]): Active

SMILES: COc1c(C(C)C)cc2c(=O)cc3c(cc2c1OC)C=CC(O)C3(C)C (configuration not stated)
- Activity (RAW264.7 [4]): Toxic

SMILES: CC(C)c1cc2c(c3c1OC(C)(C)O3)C=C1C=CC(=O)C(C)(C)C1=CC2
- Activity (RAW264.7 [4]): Toxic

SMILES: CC(C)c1cc2c(c(O)c1O)C=C1C=CC(=O)C(C)(C)C1CC2=O (configuration not stated)
- Activity (RAW264.7 [4]): Toxic

SMILES: COc1c(C(C)C)cc2c(=O)cc3c(cc2c1OC)C=CC(=O)C3(C)C
- inhibition (Mus musculus [5]): Active
- Activity (RAW264.7 [6]): Dose-Dependent Effect
- Activity (RAW264.7 [7]): Dose-Dependent Effect
- Activity (Mus musculus [8]): Active
- Activity (RAW264.7 [9]): Dose-Dependent Effect
- Activity (RAW264.7 [10]): Dose-Dependent Effect
- Activity (Mus musculus [11]): Active
- Activity (RAW264.7 [1]): Active
- Activity (RAW264.7 [12]): Dose-Dependent Effect
- Activity (RAW264.7 [2]): Active
- Activity (RAW264.7 [13]): Dose-Dependent Effect
- Activity (RAW264.7 [14]): Dose-Dependent Effect
- Activity (RAW264.7 [15]): Dose-Dependent Effect
- Activity (Mus musculus [16]): Active
- Activity (Mus musculus [17]): Active
- Activity (RAW264.7 [18]): Dose-Dependent Effect
- Activity (RAW264.7 [19]): Dose-Dependent Effect
- Activity (RAW264.7 [20]): Dose-Dependent Effect
- inhibition (Mus musculus [21]): Active
- Activity (Mus musculus [22]): Dose-Dependent Effect
- Activity (RAW264.7 [23]): Dose-Dependent Effect
- Activity (RAW264.7 [24]): Dose-Dependent Effect
- Activity (Mus musculus [25]): Active
- Activity (RAW264.7 [26]): Dose-Dependent Effect
- Activity (RAW264.7 [27]): Dose-Dependent Effect
- Activity (RAW264.7 [28]): Dose-Dependent Effect
- Activity (RAW264.7 [29]): Dose-Dependent Effect
- Activity (RAW264.7 [3]): Active
- Activity (RAW264.7 [30]): Dose-Dependent Effect
- Activity (RAW264.7 [31]): Dose-Dependent Effect
- Activity (Mus musculus [32]): Dose-Dependent Effect
